In PubChem BioAssay AID2060887 (Molecular Pharmacology Branch, DTP, NCI, 2025):

Test system: 782815-120-R-J1-PDC complex spheroid viability
Assay: Anticancer human tumor 782815-120-R-J1-PDC patient-derived colon adenocarcinoma cell line growth inhibition [RAS]
Details: for IC50: curve of first compound; for viability, T/C: stronger effect = lower value; active means viability on the fitted dose curve at most 10% of control; inactive means the rest
Outline: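 Agents were tested in combination matrices in half-log decrements from a top concentration at or near clinical Cmax (10 microM if undetermined). Targets were multi-cell spheroids of tumour lines plus HUVEC and MSC stromal cells.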

[1] = second compound 0.000949 µM, first compound 0.00316 µM
[2] = second compound 0.000949 µM, first compound 0.01 µM
[3] = second compound 0.000949 µM, first compound 0.0316 µM
[4] = second compound 0.000949 µM, first compound 0.1 µM
[5] = second compound 0.000949 µM, first compound 0.316 µM
[6] = second compound 0.000949 µM, first compound 1 µM
[7] = second compound 0.003 µM, first compound 0.00316 µM
[8] = second compound 0.003 µM, first compound 0.01 µM
[9] = second compound 0.003 µM, first compound 0.0316 µM
[10] = second compound 0.003 µM, first compound 0.1 µM
[11] = second compound 0.003 µM, first compound 0.316 µM
[12] = second compound 0.003 µM, first compound 1 µM
[13] = second compound 0.00949 µM, first compound 0.00316 µM
[14] = second compound 0.00949 µM, first compound 0.01 µM
[15] = second compound 0.00949 µM, first compound 0.0316 µM
[16] = second compound 0.00949 µM, first compound 0.1 µM
[17] = second compound 0.00949 µM, first compound 0.316 µM
[18] = second compound 0.00949 µM, first compound 1 µM
[19] = second compound 0.03 µM, first compound 0.00316 µM
[20] = second compound 0.03 µM, first compound 0.01 µM
[21] = second compound 0.03 µM, first compound 0.0316 µM
[22] = second compound 0.03 µM, first compound 0.1 µM
[23] = second compound 0.03 µM, first compound 0.316 µM
[24] = second compound 0.03 µM, first compound 1 µM
[25] = second compound 0.0949 µM, first compound 0.00316 µM
[26] = second compound 0.0949 µM, first compound 0.01 µM
[27] = second compound 0.0949 µM, first compound 0.0316 µM
[28] = second compound 0.0949 µM, first compound 0.1 µM
[29] = second compound 0.0949 µM, first compound 0.316 µM
[30] = second compound 0.0949 µM, first compound 1 µM
[31] = second compound 0.3 µM, first compound 0.00316 µM
[32] = second compound 0.3 µM, first compound 0.01 µM
[33] = second compound 0.3 µM, first compound 0.0316 µM
[34] = second compound 0.3 µM, first compound 0.1 µM
[35] = second compound 0.3 µM, first compound 0.316 µM
[36] = second compound 0.3 µM, first compound 1 µM
[37] = second compound 0.000949 µM, first compound 0.000949 µM
[38] = second compound 0.000949 µM, first compound 0.003 µM
[39] = second compound 0.000949 µM, first compound 0.00949 µM
[40] = second compound 0.000949 µM, first compound 0.03 µM
[41] = second compound 0.000949 µM, first compound 0.0949 µM
[42] = second compound 0.000949 µM, first compound 0.3 µM
[43] = second compound 0.003 µM, first compound 0.000949 µM
[44] = second compound 0.003 µM, first compound 0.003 µM
[45] = second compound 0.003 µM, first compound 0.00949 µM
[46] = second compound 0.003 µM, first compound 0.03 µM
[47] = second compound 0.003 µM, first compound 0.0949 µM
[48] = second compound 0.003 µM, first compound 0.3 µM
[49] = second compound 0.00949 µM, first compound 0.000949 µM
[50] = second compound 0.00949 µM, first compound 0.003 µM
[51] = second compound 0.00949 µM, first compound 0.00949 µM
[52] = second compound 0.00949 µM, first compound 0.03 µM
[53] = second compound 0.00949 µM, first compound 0.0949 µM
[54] = second compound 0.00949 µM, first compound 0.3 µM
[55] = second compound 0.03 µM, first compound 0.000949 µM
[56] = second compound 0.03 µM, first compound 0.003 µM
[57] = second compound 0.03 µM, first compound 0.00949 µM
[58] = second compound 0.03 µM, first compound 0.03 µM
[59] = second compound 0.03 µM, first compound 0.0949 µM
[60] = second compound 0.03 µM, first compound 0.3 µM
[61] = second compound 0.0949 µM, first compound 0.000949 µM
[62] = second compound 0.0949 µM, first compound 0.003 µM
[63] = second compound 0.0949 µM, first compound 0.00949 µM
[64] = second compound 0.0949 µM, first compound 0.03 µM
[65] = second compound 0.0949 µM, first compound 0.0949 µM
[66] = second compound 0.0949 µM, first compound 0.3 µM
[67] = second compound 0.3 µM, first compound 0.000949 µM
[68] = second compound 0.3 µM, first compound 0.003 µM
[69] = second compound 0.3 µM, first compound 0.00949 µM
[70] = second compound 0.3 µM, first compound 0.03 µM
[71] = second compound 0.3 µM, first compound 0.0949 µM
[72] = second compound 0.3 µM, first compound 0.3 µM
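Further: spheroids exposed to compounds for 7 days before reading.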
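Wherever viability, T/C is given: 100% = DMSO vehicle control viability.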

C=CC(=O)N1CCN(c2nc(OCC3CCCN3C)nc3c(F)c(-c4nc(N)cc(C)c4C(F)(F)F)c(Cl)cc23)C(C)C1 (stereo not drawn) + CCn1c(-c2cc(N3CCN(C)CC3)cnc2C(C)OC)c2c3cc(ccc31)-c1csc(n1)CC(NC(=O)C1CC1C)C(=O)N1CCCC(N1)C(=O)OCC(C)(C)C2
inactive: viability, T/C [1] 82.5% | viability, T/C [2] 74.3% | viability, T/C [3] 70% | viability, T/C [4] 79.5% | viability, T/C [5] 77.1% | viability, T/C [6] 90% | viability, T/C [7] 57.1% | viability, T/C [8] 56.9% | viability, T/C [9] 57.9% | viability, T/C [10] 49.6% | viability, T/C [11] 55% | viability, T/C [12] 57.2% | viability, T/C [13] 31.1% | viability, T/C [14] 32% | viability, T/C [15] 36.7% | viability, T/C [16] 29.8% | viability, T/C [17] 31.6% | viability, T/C [18] 31% | viability, T/C [19] 19.6% | viability, T/C [20] 22% | viability, T/C [21] 17.9% | viability, T/C [22] 20.6% | viability, T/C [23] 18.1% | viability, T/C [24] 19.8% | viability, T/C [25] 16% | viability, T/C [26] 14.3% | viability, T/C [27] 16.1% | viability, T/C [28] 15.5% | viability, T/C [29] 15.2% | viability, T/C [30] 13.5% | viability, T/C [31] 16.1% | viability, T/C [32] 16.3% | viability, T/C [33] 15.6% | viability, T/C [34] 16.5% | viability, T/C [35] 16.2% | viability, T/C [36] 13.6%
> 1000 nM: IC50 (second compound 0.000949 µM) | IC50 (second compound 0.003 µM)
< 3.16 nM: IC50 (second compound 0.00949 µM) | IC50 (second compound 0.03 µM) | IC50 (second compound 0.0949 µM) | IC50 (second compound 0.3 µM)

CC1(C)CCC(Nc2ncc(C(F)(F)F)c(-c3c[nH]c4c(P(C)(C)=O)c(C#N)ccc34)n2)CN1 (stereo not drawn) + CCn1c(-c2cc(N3CCN(C)CC3)cnc2C(C)OC)c2c3cc(ccc31)-c1csc(n1)CC(NC(=O)C1CC1C)C(=O)N1CCCC(N1)C(=O)OCC(C)(C)C2
inactive: viability, T/C [37] 65.1% | viability, T/C [38] 61.3% | viability, T/C [39] 54.6% | viability, T/C [40] 43% | viability, T/C [41] 36.9% | viability, T/C [42] 39.2% | viability, T/C [43] 52.9% | viability, T/C [44] 54% | viability, T/C [45] 44.6% | viability, T/C [46] 31.3% | viability, T/C [47] 34.4% | viability, T/C [48] 34.2% | viability, T/C [49] 30.3% | viability, T/C [50] 30.4% | viability, T/C [51] 25.7% | viability, T/C [52] 22.8% | viability, T/C [53] 19.2% | viability, T/C [54] 23.6% | viability, T/C [55] 18.7% | viability, T/C [56] 18.3% | viability, T/C [57] 15.3% | viability, T/C [58] 14% | viability, T/C [59] 13% | viability, T/C [60] 13.6% | viability, T/C [61] 15.6% | viability, T/C [62] 15.6% | viability, T/C [63] 9.83% | viability, T/C [64] 10.4% | viability, T/C [67] 16.3% | viability, T/C [68] 13.9% | viability, T/C [69] 12.5%
< 0.949 nM: IC50 (second compound 0.00949 µM) | IC50 (second compound 0.03 µM) | IC50 (second compound 0.0949 µM) | IC50 (second compound 0.3 µM)
2.4 nM: IC50 (second compound 0.003 µM)
14.6 nM: IC50 (second compound 0.000949 µM)
active: viability, T/C [65] 10.7% | viability, T/C [66] 8.29% | viability, T/C [70] 9.35% | viability, T/C [71] 7.69% | viability, T/C [72] 7.08%

CCc1c2c(nc3ccc(O)cc13)-c1cc3c(c(=O)n1C2)COC(=O)[C@]3(O)CC + CCn1c(-c2cc(N3CCN(C)CC3)cnc2C(C)OC)c2c3cc(ccc31)-c1csc(n1)CC(NC(=O)C1CC1C)C(=O)N1CCCC(N1)C(=O)OCC(C)(C)C2
1.92 nM: IC50 (second compound 0.003 µM)
2.4 nM: IC50 (second compound 0.000949 µM)
active: viability, T/C [40] 10.8% | viability, T/C [41] 3.9% | viability, T/C [42] 1.57% | viability, T/C [47] 4.38% | viability, T/C [48] 1.89% | viability, T/C [53] 7.05% | viability, T/C [54] 1.84% | viability, T/C [58] 10.4% | viability, T/C [59] 6.53% | viability, T/C [60] 1.73% | viability, T/C [64] 10.5% | viability, T/C [65] 7.5% | viability, T/C [66] 0.75% | viability, T/C [70] 13.1% | viability, T/C [71] 7.92% | viability, T/C [72] 1.5%
< 0.949 nM: IC50 (second compound 0.00949 µM) | IC50 (second compound 0.03 µM) | IC50 (second compound 0.0949 µM) | IC50 (second compound 0.3 µM)
inactive: viability, T/C [37] 70.4% | viability, T/C [38] 45.9% | viability, T/C [39] 19.8% | viability, T/C [43] 66.6% | viability, T/C [44] 38.8% | viability, T/C [45] 23.4% | viability, T/C [46] 12.9% | viability, T/C [49] 32.7% | viability, T/C [50] 28.5% | viability, T/C [51] 15.4% | viability, T/C [52] 12.7% | viability, T/C [55] 19.6% | viability, T/C [56] 16.7% | viability, T/C [57] 11.7% | viability, T/C [61] 15.5% | viability, T/C [62] 16.3% | viability, T/C [63] 11.7% | viability, T/C [67] 14.3% | viability, T/C [68] 13.6% | viability, T/C [69] 10.7%

C=CC(=O)Nc1cc(Nc2nccc(-c3cn(C)c4ccccc34)n2)c(OC)cc1N(C)CCN(C)C + CCn1c(-c2cccnc2C(C)OC)c2c3cc(ccc31)N1CCOC(CC(NC(=O)C(C(C)C)N(C)C(=O)C3(F)CCN(C(=O)C#CC(C)(C)N(C)C)CC3)C(=O)N3CCCC(N3)C(=O)OCC(C)(C)C2)C1
inactive: viability, T/C [1] 102% | viability, T/C [2] 97.7% | viability, T/C [3] 99.6% | viability, T/C [4] 103% | viability, T/C [5] 87.2% | viability, T/C [6] 84% | viability, T/C [7] 102% | viability, T/C [8] 91.1% | viability, T/C [9] 90.9% | viability, T/C [10] 91.9% | viability, T/C [11] 93.8% | viability, T/C [12] 83.2% | viability, T/C [13] 96.9% | viability, T/C [14] 92.8% | viability, T/C [15] 94.2% | viability, T/C [16] 96.5% | viability, T/C [17] 100% | viability, T/C [18] 84.3% | viability, T/C [19] 86.4% | viability, T/C [20] 92.8% | viability, T/C [21] 96.3% | viability, T/C [22] 86.4% | viability, T/C [23] 93% | viability, T/C [24] 86.1% | viability, T/C [25] 94.2% | viability, T/C [26] 94.8% | viability, T/C [27] 85.3% | viability, T/C [28] 97.3% | viability, T/C [29] 106% | viability, T/C [30] 86.4% | viability, T/C [31] 85.1% | viability, T/C [32] 88% | viability, T/C [33] 96.7% | viability, T/C [34] 88.7% | viability, T/C [35] 97% | viability, T/C [36] 73.8%
> 1000 nM: IC50 (second compound 0.000949 µM) | IC50 (second compound 0.003 µM) | IC50 (second compound 0.00949 µM) | IC50 (second compound 0.03 µM) | IC50 (second compound 0.0949 µM) | IC50 (second compound 0.3 µM)
